The values below come from patent publication US12233161B1, “Lipids and lipid nanoparticle formulations” (LONGUIDE BIOPHARMA CORPORATION, priority 2024, dated 2025).

Data set [1] is described as follows: Particle size and PDI of nucleic acid lipid nanoparticle preparations by dynamic light scattering. The data set is classed as physicochemical. The method, then: The 7.5 μL nucleic acid lipid nanoparticle solution (containing approximately 0.04 mg/mL mRNA) was taken and added with 200 μL ultrapure water, mixed by gentle blowing using a pipette tip, and the particle size of the nanopreparation was detected by dynamic lightscattering (DLS) using a Malvern Dynamic Light Scattering Instrument (Malvern Instruments Ltd., ZEN3700, UK).
27.5 μL nucleic acid lipid nanoparticle solution (containing about 0.04 mg/mL mRNA) was taken and added with 200 μL ultrapure water. A pipette tip was used to gently blow the sample and mix well. The particle size of the nanopreparation was detected by Malvern Dynamic Light Scattering Instrument (Malvern Instruments Ltd., ZEN3700, UK). After the detection, the sample was recovered to an EP tube, and 600 μL of ultrapure water was added, gently blown with a pipette tip, and the potential of the nanopreparation was measured by a Malvern particle size meter.

Data set [2] has as its system mice. The data set can be described thus: In vivo delivery of FLuc-mRNA lipid nanoparticles in mice, in vivo imaging (IVIS). In outline:
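Mice (n=3) received about 75 μL FLuc-mRNA LNP per mouse intramuscularly (rectus femoris), intravenously (tail vein), intraperitoneally or subcutaneously (back). After injection, D-luciferin (200 μL, 15 mg/mL) was given i.p. 10-15 min before IVIS imaging.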

The mark [3] stands for this setting: DMG-PEG2000:DSPC:Chol:compound 1.40:11.15:38.95:48.50, N/P 30.
[4] abbreviates: IM, DMG-PEG2000:DSPC:Chol:compound 1.40:11.15:38.95:48.50, N/P 30, Fluc-mRNA.
The mark [5] stands for this setting: DMG-PEG2000:DSPC:Chol:compound 1.40:11.15:38.95:48.50, N/P 20.
The mark [6] stands for this setting: IM, DMG-PEG2000:DSPC:Chol:compound 1.40:11.15:38.95:48.50, N/P 20, Fluc-mRNA.
[7] abbreviates: IV, organ not given, DMG-PEG2000:DSPC:Chol:compound 1.40:11.15:38.95:48.50, N/P 20, Fluc-mRNA.
Setting [8] is: DMG-PEG2000:DSPC:Chol:Lipid 0.95:7.58:26.47:65.00, N/P 18, mRNA LNP.
Setting [9] is: DMG-PEG2000:DSPC:Chol:Lipid 1.40:11.15:38.95:48.50, N/P 18, mRNA LNP.
Where [10] appears, read: IV, body, DMG-PEG2000:DSPC:Chol:compound 1.40:11.15:38.95:48.50, N/P 20, Fluc-mRNA.
[11] abbreviates: IV, liver, DMG-PEG2000:DSPC:Chol:compound 1.40:11.15:38.95:48.50, N/P 20.
[12] abbreviates: IV, liver, DMG-PEG2000:DSPC:Chol:compound 1.40:11.15:38.95:48.50, N/P 20, Fluc-mRNA.
[13] abbreviates: IV, lung, DMG-PEG2000:DSPC:Chol:compound 1.40:11.15:38.95:48.50, N/P 20.
[14] abbreviates: IV, lung, DMG-PEG2000:DSPC:Chol:compound 1.40:11.15:38.95:48.50, N/P 20, Fluc-mRNA.
Where [15] appears, read: IV, spleen, DMG-PEG2000:DSPC:Chol:compound 1.40:11.15:38.95:48.50, N/P 20.
[16] abbreviates: IV, spleen, DMG-PEG2000:DSPC:Chol:compound 1.40:11.15:38.95:48.50, N/P 20, Fluc-mRNA.

For `CCCCCCCCCCCCNC(=O)C(O)CN(C)CCCN(C)CCCN(C)CC(O)C(=O)NCCCCCCCCCCCC` (stereo not drawn) [Compound L0311], in data set [1] (setting [3]), the PDI is listed as 0.16 and the “Particle size (nm)” value came to 111.00 nm. The same molecule gave an IVIS in data set [2] (setting [4]) of 2.23E+05. Further, the IVIS in data set [2] (IV, organ not given, DMG-PEG2000:DSPC:Chol:compound 1.40:11.15:38.95:48.50, N/P 30, Fluc-mRNA) was 4.57E+05.

`CCCCCCCCCCCCOC(=O)C(O)CN(CCOCCN(CC(O)C(=O)OCCCCCCCCCCCC)CC(O)C(=O)OCCCCCCCCCCCC)CC(O)C(=O)OCCCCCCCCCCCC` (stereo not drawn) [Compound L0312] displayed a PDI in data set [1] (setting [5]) of 0.12. Moreover, in data set [1] (setting [5]), the “Particle size (nm)” value came out at 172.73 nm. Further, the IVIS in data set [2] (setting [6]) is reported as 9.71E+05; in data set [2] (setting [7]), 5.52E+05.

As for `CCCCCCCCCCOC(=O)C(O)CN(C)CCN(C)CCN(C)CC(O)C(=O)OCCCCCCCCCC` (stereo not drawn) [Compound L0275], the PDI is 0.13 ± 0.01 in data set [1] (setting [8]) and 0.17 ± 0.01 in data set [1] (setting [9]). For the same molecule, the Particle size in data set [1] (setting [8]) amounted to 121.27 ± 0.93 nm; in data set [1] (setting [9]) it was 85.45 ± 0.70 nm. Further, the IVIS is given as 1.47 × 10^6 in data set [2] (DMG-PEG2000:DSPC:Chol:Lipid 0.95:7.58:26.47:65.00, N/P 18, IM, whole body scan) and 4.52 × 10^5 in data set [2] (DMG-PEG2000:DSPC:Chol:Lipid 1.40:11.15:38.95:48.50, N/P 18, IV, whole body scan).

Take `CCCCCCCCC(CCCCCC)C(=O)OCCCCOC(=O)C(O)CN(CCN(C)CCN(CC(O)C(=O)OCCCCOC(=O)C(CCCCCC)CCCCCCCC)CC(O)C(=O)OCCCCOC(=O)C(CCCCCC)CCCCCCCC)CC(O)C(=O)OCCCCOC(=O)C(CCCCCC)CCCCCCCC` (stereo not drawn) [Compound L0298]: the PDI in data set [1] (setting [3]) turned out to be 0.11. In addition, the “Particle size (nm)” value in data set [1] (setting [3]) was determined as 91.43 nm. Further, the IVIS stood at 5.25E+07 in data set [2] (setting [4]); 1.30E+08 in data set [2] (IV, body, DMG-PEG2000:DSPC:Chol:compound 1.40:11.15:38.95:48.50, N/P 30, Fluc-mRNA); 3.03E+07 in data set [2] (IV, liver, DMG-PEG2000:DSPC:Chol:compound 1.40:11.15:38.95:48.50, N/P 30, Fluc-mRNA); 4.23E+06 in data set [2] (IV, lung, DMG-PEG2000:DSPC:Chol:compound 1.40:11.15:38.95:48.50, N/P 30, Fluc-mRNA); 4.21E+07 in data set [2] (IV, spleen, DMG-PEG2000:DSPC:Chol:compound 1.40:11.15:38.95:48.50, N/P 30, Fluc-mRNA). For the same molecule, the “% of organ targeting” value in data set [2] (IV, liver, DMG-PEG2000:DSPC:Chol:compound 1.40:11.15:38.95:48.50, N/P 30) turned out to be 39.52%; in data set [2] (IV, lung, DMG-PEG2000:DSPC:Chol:compound 1.40:11.15:38.95:48.50, N/P 30), 5.53%; in data set [2] (IV, spleen, DMG-PEG2000:DSPC:Chol:compound 1.40:11.15:38.95:48.50, N/P 30) it was 54.95%.

Regarding `CCCCCCCCCCCCNC(=O)C(O)CN(CCOCCN(CC(O)C(=O)NCCCCCCCCCCCC)CC(O)C(=O)NCCCCCCCCCCCC)CC(O)C(=O)NCCCCCCCCCCCC` (stereo not drawn) [Compound L0306], in data set [1] (setting [5]), the PDI is reported as 0.14 and the “Particle size (nm)” value is 84.96 nm. In addition, the IVIS in data set [2] (setting [6]) amounted to 1.82E+06. In addition, the IVIS in data set [2] (setting [7]) is recorded as 7.90E+06.

Molecule `CCCCCCCCCCCCOC(=O)C(O)CN(CCOCCOCCN(CC(O)C(=O)OCCCCCCCCCCCC)CC(O)C(=O)OCCCCCCCCCCCC)CC(O)C(=O)OCCCCCCCCCCCC` (stereo not drawn) [Compound L0309] displayed a PDI in data set [1] (setting [5]) of 0.11. For the same molecule, the “Particle size (nm)” value in data set [1] (setting [5]) is on record as 180.63 nm. In addition, the IVIS in data set [2] (setting [6]) is recorded as 3.09E+06; in data set [2] (setting [10]) it was 1.24E+06; in data set [2] (setting [12]), 5.48E+05; in data set [2] (setting [14]) it was 8.60E+04; in data set [2] (setting [16]) it was 1.91E+06. For the same molecule, the “% of organ targeting” value in data set [2] (setting [11]) was found to be 21.49%; in data set [2] (setting [13]) it was 3.37%; in data set [2] (setting [15]), 75.14%.

Turning to `CCCCCCCCCCCCNC(=O)C(O)CN(CCOCCOCCN(CC(O)C(=O)NCCCCCCCCCCCC)CC(O)C(=O)NCCCCCCCCCCCC)CC(O)C(=O)NCCCCCCCCCCCC` (stereo not drawn) [Compound L0305], in data set [1] (setting [5]), the PDI is 0.18. In addition, the “Particle size (nm)” value in data set [1] (setting [5]) is listed as 109.93 nm. Also, the IVIS is given as 4.39E+04 in data set [2] (setting [6]); 8.12E+06 in data set [2] (setting [10]); 2.14E+06 in data set [2] (setting [12]); 1.00E+05 in data set [2] (setting [14]); 3.84E+06 in data set [2] (setting [16]). The “% of organ targeting” value in data set [2] (setting [11]) worked out at 35.21%; in data set [2] (setting [13]), 1.65%; in data set [2] (setting [15]) it was 63.14%.
